Values after ≈ are worked out from the molar mass of the structure shown.
Legend:
[1] = test system: Staphylococcus albus 1238; assay: MIC in vitro against thiamphenicol-resistant strain; assay type: cell-based; details: Staphylococcus albus 1238, thiamphenicol-resistant
From the text: (§1) Furthermore, the compounds of the present invention show a certain bacterial activity, both "in vitro" and in the presence of rabbit serum, in respect of some microorganism strains resistant against thiamphenicol (ie., […]; see Merck Index Ninth Edition, page 9034) as it appears from the following results: […]

[2] = test system: Staphylococcus aureus 4180; assay: as above; assay type: cell-based; details: Staphylococcus aureus 4180, thiamphenicol-resistant
From the text: as §1

[3] = test system: Streptococcus faecalis Z 20; assay: as above; assay type: cell-based; details: Enterococcus faecalis, Z20, Streptococcus faecalis Z 20, thiamphenicol-resistant
From the text: as §1

[4] = test system: Streptococcus faecalis Z 61; assay: as above; assay type: cell-based; details: Enterococcus faecalis, Z61, Streptococcus faecalis Z 61, thiamphenicol-resistant
From the text: as §1

[5] = test system: Pseudomonas aeruginosa 50541; assay: MIC in culture broth, in the presence of rabbit serum, against thiamphenicol-resistant strain; assay type: cell-based; details: Pseudomonas aeruginosa 50541, thiamphenicol-resistant
From the text: (§2) Furthermore, the compounds of the present invention show a certain bacterial activity, both "in vitro" and in the presence of rabbit serum, in respect of some microorganism strains resistant against thiamphenicol (ie., […]; see Merck Index Ninth Edition, page 9034) as it appears from the following results:
(§3) ** = tests carried out in culture broth, in the presence of rabbit serum.

Streptococcus faecalis = assay: as above; assay type: cell-based; details: Enterococcus faecalis
From the text: as §2, §3

E. Coli K12 = assay: MIC, agar dilutions in a double series, in vitro (Table 2); assay type: cell-based; details: Escherichia coli, E. Coli K12, agar dilution
Description: (§4) Insofar as the study of the antibacterial activity spectrum is concerned, this was performed by using the method of agar dilutions in a double series. The minimum inhibitory concentration (MIC) was performed against grampositive and gram-negative microorganisms as well as Proteus.

[6] = test system: Past. multocide NCTC 10722; assay: as above; assay type: cell-based; details: Past. multocide NCTC 10722, agar dilution
Description: as §4

Proteus morgani N 520 = assay: as above; assay type: cell-based; details: Proteus morgani N 520, agar dilution
Description: as §4

S. aureus Oxford = assay: as above; assay type: cell-based; details: Staphylococcus aureus, agar dilution
Description: as §4

Salmonelli Typhi M-VI = assay: as above; assay type: cell-based
Description: as §4

Shighelli Boydii 4 = assay: as above; assay type: cell-based; details: Shighelli Boydii 4, agar dilution
Description: as §4

Strep. agalactiae 4 b = assay: as above; assay type: cell-based; details: Streptococcus agalactiae, agar dilution
Description: as §4

[7] = test system: Strep. faecalis ATCC 10541; assay: as above; assay type: cell-based; details: Enterococcus faecalis, ATCC10541, Strep. faecalis ATCC 10541, agar dilution
Description: as §4

[8] = test system: multocide NCTC 10722 Pasteurella; assay: PD50 in experimental infection of the mouse by intraperitoneal inoculation (Table 3); assay type: in vivo; details: 120 h, treatment time 5 days, about 100 times the lethal amount at 50% i.p., Spearman-Karber
From the text: The study of the antibiotic activity of the derivatives of the present invention was completed by the determination of PD50 in experimental infections from multocide NCTC 10722 Pasteurella induced in the mouse by intraperitoneal inoculation of a bacterial amount equal to about 100 times the lethal amount at 50%. The determination of PD50 relating to the examined derivatives has been carried out according to the method of Spearman-Karber (L. Cavalli-Sforza "Analisi statistica per medici e biologi e analisi del dosaggio biologico"--Ed. Universitarie Boringhieri--Torino--1961, pages 173-175).

[9] = Hydrolysis of the esters in the animal organism; assay type: in vivo; details: ester at the alcoholic function
[10] = test system: grampositive and gram-negative microorganisms as well as Proteus; assay: Antibacterial activity of the esterified derivatives compared with Z 2100; details: after hydrolysis in the animal organism
Description: as §4

SMILES | MIC [1] [µg/mL] | MIC [2] [µg/mL] | MIC [3] [µg/mL] | MIC [4] [µg/mL] | MIC [5] [µg/mL] | MIC (Streptococcus faecalis) [µg/mL] | MIC (E. Coli K12) [µg/mL] | MIC [6] [µg/mL] | MIC (Proteus morgani N 520) [µg/mL] | MIC (S. aureus Oxford) [µg/mL] | MIC (Salmonelli Typhi M-VI) [µg/mL] | MIC (Shighelli Boydii 4) [µg/mL] | MIC (Strep. agalactiae 4 b) [µg/mL] | MIC [7] [µg/mL] | ED50 ([8]; NCTC10722, po, per os) [mg/kg] | ED50 ([8]; NCTC10722, sc, subcutaneous) [mg/kg] | hydrolysis in the animal organism [9] | activity relative to Z 2100 [10]
CS(=O)(=O)c1ccc([C@@H](O)[C@@H](CO)NC(=O)C(Cl)Cl)cc1 [Thiamphenicol, reference compound] | 160 (≈ 449 µM) | 160 (≈ 449 µM) | 160 (≈ 449 µM) | 160 (≈ 449 µM) | 160 | 320 | – | – | – | – | – | – | – | – | – | – | – | –
CSc1ccc([C@@H](O)[C@@H](CO)NC(=O)C(F)(F)F)cc1 [Z 2109, D-(-)-threo-1-(p-methylmercaptophenyl)-2-trifluoroacetamido-1,3-propanediol] | – | – | – | – | – | – | 16 (≈ 51.7 µM) | 4 (≈ 12.9 µM) | 4 (≈ 12.9 µM) | 32 (≈ 103 µM) | 64 (≈ 207 µM) | 32 (≈ 103 µM) | 64 (≈ 207 µM) | 32 (≈ 103 µM) | 16.6 | – | – | –
CS(=O)(=O)c1ccc([C@@H](O)[C@@H](COC(=O)CN)NC(=O)C(F)(F)F)cc1 [Z 2117, D-(+)-threo-1-(p-methanesulphonylphenyl)-2-trifluoroacetamido-3-aminoacetoxy-1-propanol] | – | – | – | – | – | – | – | – | – | – | – | – | – | – | – | 14.3 | quickly hydrolyzed in the animal organism | show the same activity as Z 2100
CCCCCCCCCCCCCCCC(=O)OC[C@@H](NC(=O)C(F)(F)F)[C@H](O)c1ccc(S(C)(=O)=O)cc1 [Z 2112, D-(+)-threo-1-(p-methanesulphonylphenyl)-2-trifluoroacetamido-3-palmitoyloxy-1-propanol] | – | – | – | – | – | – | – | – | – | – | – | – | – | – | 21 | – | quickly hydrolyzed in the animal organism | show the same activity as Z 2100
CS(=O)(=O)c1ccc([C@@H](O)[C@@H](CO)NC(=O)C(F)(F)F)cc1 [Z 2100, D-(+)-threo-1-(p-methanesulphonylphenyl)-2-trifluoroacetamido-1,3-propanediol] | 40 (≈ 117 µM) | 40 (≈ 117 µM) | 40 (≈ 117 µM) | 80 (≈ 234 µM) | 80 | 80 | 64 (≈ 188 µM) | 2 (≈ 5.86 µM) | 8 (≈ 23.4 µM) | 16 (≈ 46.9 µM) | 32 (≈ 93.8 µM) | – | 16 (≈ 46.9 µM) | 8 (≈ 23.4 µM) | 19 | – | – | –

Reference: US4188402A, “Derivatives of the D-threo-1-phenyl-2-trifluoroacetamido-1,3-propandediol” (Clesa S.p.A., priority 1977, dated 1980)
